We go through 1 molecule from paper PMC9897792, “Discovery of novel 2-(4-(benzyloxy)-5-(hydroxyl) phenyl) benzothiazole derivatives as multifunctional MAO-B inhibitors for the treatment of Parkinson’s disease” (Journal of Enzyme Inhibition and Medicinal Chemistry, 2023).

Structures are written as SMILES.

For data set [1], the target named is T1, MAO-B (Homo sapiens, UniProt P27338).
T1 sequence (P27338 1-520): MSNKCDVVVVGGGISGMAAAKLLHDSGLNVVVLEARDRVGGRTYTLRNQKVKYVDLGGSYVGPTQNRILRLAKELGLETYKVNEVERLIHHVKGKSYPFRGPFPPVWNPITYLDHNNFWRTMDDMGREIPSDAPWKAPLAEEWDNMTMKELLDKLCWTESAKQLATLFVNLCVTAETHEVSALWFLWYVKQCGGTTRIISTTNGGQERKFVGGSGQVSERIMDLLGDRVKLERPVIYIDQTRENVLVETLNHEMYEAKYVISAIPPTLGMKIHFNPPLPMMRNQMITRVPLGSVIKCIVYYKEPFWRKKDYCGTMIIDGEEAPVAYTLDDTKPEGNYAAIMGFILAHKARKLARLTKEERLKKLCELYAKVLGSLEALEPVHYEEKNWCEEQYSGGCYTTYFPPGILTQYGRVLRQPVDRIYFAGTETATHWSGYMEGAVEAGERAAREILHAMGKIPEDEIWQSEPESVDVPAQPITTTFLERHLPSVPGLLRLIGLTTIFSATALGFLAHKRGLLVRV
Briefly: Kinetic study of MAO-B inhibition (Lineweaver-Burk plots). It counts as biochemical. On the procedure: Kinetic study[35]^,[36] was conducted to figure out the MAO-B inhibitory mechanism of 2-(4-(benzyloxy)-5-(hydroxyl) phenyl) benzothiazole derivatives, with 3h as the test compound. […] The graphical of the reciprocal Lineweaver-Burk plots was depicted in Figure 2(A).
The kinetic study of 3h was conducted by the method which is similar with the inhibition experiment of MAOs. Different concentrations of 3h (0.124, 0.062, and 0.031 µM) and kynuramine (15, 30, 60, and 90 µM) solutions were selected. The control experiment was performed without 3h. The method of data analysis has been described previously.

Data set [2] is described as follows: Stoichiometry of 3h-Fe^2+ complex by molar ratio method. Conditions: absorbance at 385 nm; FeSO4 0–187.5 µM; 3h 75 µM in methanol. It counts as physicochemical. The method, then:
Because Fe^2+ played a crucial role in the pathogenesis of PD, the stoichiometry of 3h-Fe^2+ complex was further measured by using molar ratio method. 3h was incubated with various concentrations of FeSO4 (0–187.5 µM), and the electronic spectra were detected.
As the Fe^2+ played important role in the pathogenetic process of PD, the stoichiometry of 3h-Fe^2+ complex was detected by using molar ratio method. In detail, test compound solution (1.0 ml, 75 µM in methanol) was incubated with Fe^2+ solution (1.0 ml, 7.5–187.5 µM in methanol) at 37 °C for 30 min. Then, the mixture was removed from the vial to a quartz cell, and the absorbance of mixture at 200–800 nm was measured by using UV spectrophotometer (Shimadzu UV-1900i).

Data set [3] has as its system NO release in LPS-activated BV-2 microglia cells. Briefly: LPS-induced NO release in BV-2 cells (Griess method). The format is cell-based. Conditions: Mus musculus, LPS 1.0 µg/mL, read-out: inhibitory rate of LPS-induced NO release. The method, then:
Then, Griess method was performed to measure the inhibitory effect of 3h on LPS-induced NO release in BV-2 cells. […] It reflected that LPS could induce the activation of BV-2 cells and induce neuroinflammation.
ELISA and Griess reaction methods were performed to detect the inhibitory effect of 3h on the release of TNF-α and NO in LPS-stimulated BV-2 cells[46]^,[47]. BV-2 cells in the logarithmic phase were seeded into 96-well cell culture plate, and these cells were incubated at 37 °C for 24 h at the atmosphere of 5% CO2. After incubation, the culture solution was replaced by fresh one (90 µL without serum), and test compound solution (10 µL) was added. After addition, the plate was incubated for 30 min, then LPS (10 µL, 1.0 µg/ml in PBS) was added to each well, and the mixture would be incubated for another 24 h at 37 °C. After the final incubation, the supernatants were taken out to measure the level of TNF-α and NO according to the procedures depicted on the kits (kits were purchased from Nanjing Jiancheng Bioengineering Institute).

Data set [4] deals with ROS release in LPS-treated BV-2 cells. Put plainly: LPS-induced ROS release in BV-2 cells (DCFH-DA probe). The format is cell-based. The conditions noted are these: Mus musculus, LPS 1.0 µg/mL, read-out: inhibition rate of LPS-induced ROS release. On the procedure:
The inhibitory effect of 3h on LPS-induced ROS release in BV-2 cells in vitro was detected by using 2′,7′-dichlorofluorescein diacetate (DCFH-DA) as probe to quantify the ROS level in LPS-treated BV-2 cells. Noticeably, the fluorescence intensity of control group was relatively low, indicating low level of ROS. […] The fluorescence values were further detected by using microplate reader (Figure 9(B)), and then the inhibition rates were calculated. […] BV-2 cells were incubated with test compound solution (10 µL) for 30 min, then LPS (10 µL, 1.0 µg/ml in PBS) was added to each well, and each well would be incubated for another 30 min at 37 °C. […] The fluorescence was measured with excitation and emission wavelengths at 488 and 525 nm on an inverted fluorescence microscope.

Usually Ki stands for the equilibrium dissociation constant of an inhibitor or competing ligand from its target. As for `Oc1cc(OCc2ccc(F)cc2)ccc1-c1nc2ccccc2s1` [3h, 2-(Benzo[d]thiazol-2-yl)-5-((4-fluorobenzyl)oxy)phenol], the MAO-B inhibition pattern entry in data set [1] (Lineweaver-Burk plots) is given as “competitive”. Also, in data set [1] (from slopes of Lineweaver-Burk plots vs. inhibitor concentration, kynuramine substrate, read-out: competitive inhibition constant (Ki)), the Ki worked out at 102 nM. Further, the “molar ratio at intersection of straight lines (molar ratio method)” value in data set [2] amounted to 1.65. The inhibition at 0.5 µM in data set [3] (0.5 µM) was 15.8%. The inhibition at […] was 35.8% in data set [3] (2.5 µM) and 19.8% in data set [4] (2.5 µM). The inhibition at 10 µM in data set [3] (10.0 µM) is 63.7%; in data set [4] (10.0 µM), 78%.
